Source: the CheMixHub viscosity set

Experiment: xn = mol fraction of the nth substance listed

CC12CC3CC(C)(C1)CC(C)(C3)C2 + c1ccc2c(c1)CCCC2
viscosity [mPa·s], 100 kPa
Details | x1 = 0.1006 | x1 = 0.2003 | x1 = 0.2993 | x1 = 0.4002 | x1 = 0.4993 | x1 = 0.6013 | x1 = 0.7012 | x1 = 0.8008 | x1 = 0.9005
293.15 K | 2.14 | 2.1 | 2.1 | 2.12 | 2.16 | 2.22 | 2.29 | 2.38 | 2.5
298.15 K | 1.93 | 1.9 | 1.9 | 1.92 | 1.95 | 2 | 2.07 | 2.15 | 2.25
303.15 K | 1.76 | 1.73 | 1.73 | 1.75 | 1.78 | 1.82 | 1.88 | 1.95 | 2.04
308.15 K | 1.61 | 1.59 | 1.59 | 1.6 | 1.62 | 1.67 | 1.72 | 1.78 | 1.85
313.15 K | 1.48 | 1.46 | 1.46 | 1.47 | 1.49 | 1.53 | 1.57 | 1.63 | 1.7
318.15 K | 1.37 | 1.35 | 1.35 | 1.36 | 1.38 | 1.41 | 1.45 | 1.5 | 1.56
323.15 K | 1.26 | 1.25 | 1.25 | 1.26 | 1.28 | 1.31 | 1.34 | 1.39 | 1.44

CCCCCCCC + CCCCCC
viscosity [mPa·s]
Details | x2 = 0.1072 | x2 = 0.2073 | x2 = 0.2375 | x2 = 0.3034 | x2 = 0.4038 | x2 = 0.5101 | x2 = 0.6111 | x2 = 0.7056 | x2 = 0.805 | x2 = 0.9018
294.65 K, 100 kPa | – | – | 0.432 | – | – | – | – | – | – | –
298.15 K, 101.33 kPa | 0.4782 | 0.4598 | – | 0.4414 | 0.4124 | 0.392 | 0.3697 | 0.351 | 0.3326 | 0.3172

ClC(Cl)=C(Cl)Cl + CC#N
303.15 K, 101.32 kPa
Details | viscosity [mPa·s]
x2 = 0.1294 | 0.7489
x2 = 0.1929 | 0.7334
x2 = 0.3101 | 0.699
x2 = 0.4022 | 0.6632
x2 = 0.4671 | 0.631
x2 = 0.5673 | 0.5728
x2 = 0.6707 | 0.505
x2 = 0.7358 | 0.4619
x2 = 0.846 | 0.3947
x2 = 0.9295 | 0.3522

CCCCCCCCCCCCCC + CCCC(C)O
viscosity [mPa·s], 101.33 kPa
Details | x1 = 0.0999 | x1 = 0.2002 | x1 = 0.3001 | x1 = 0.3987 | x1 = 0.5009 | x1 = 0.6004 | x1 = 0.6996 | x1 = 0.8014 | x1 = 0.9002
293.15 K | 2.923 | 2.557 | 2.314 | 2.191 | 2.117 | 2.1 | 2.114 | 2.141 | 2.177
303.15 K | 2.381 | 2.111 | 1.928 | 1.823 | 1.752 | 1.741 | 1.748 | 1.76 | 1.787
313.15 K | 1.742 | 1.58 | 1.476 | 1.41 | 1.391 | 1.392 | 1.41 | 1.441 | 1.472
323.15 K | 1.362 | 1.266 | 1.192 | 1.152 | 1.148 | 1.153 | 1.171 | 1.21 | 1.24

COCC(C)O (centres undefined) + CC(=O)CC(C)C
298.15 K, 101 kPa
Details | viscosity [mPa·s]
x2 = 0.1057 | 1.373
x2 = 0.2037 | 1.167
x2 = 0.3075 | 1.006
x2 = 0.4185 | 0.875
x2 = 0.5295 | 0.774
x2 = 0.6413 | 0.696
x2 = 0.7612 | 0.63
x2 = 0.8745 | 0.582

O=[N+]([O-])c1ccccc1 + CN(C)C=O
viscosity [mPa·s]
Details | 298.15 K | 303.15 K | 308.15 K | 313.15 K
101.3 kPa, x1 = 0.0953 | 0.926 | 0.8671 | 0.8133 | 0.7628
101.3 kPa, x1 = 0.1999 | 1.026 | 0.9585 | 0.8949 | 0.8362
101.3 kPa, x1 = 0.3027 | 1.129 | 1.053 | 0.9803 | 0.9134
101.3 kPa, x1 = 0.4044 | 1.231 | 1.146 | 1.075 | 0.9878
101.3 kPa, x1 = 0.504 | 1.338 | 1.246 | 1.154 | 1.07
101.3 kPa, x1 = 0.6035 | 1.441 | 1.332 | 1.232 | 1.14
101.3 kPa, x1 = 0.7034 | 1.543 | 1.423 | 1.313 | 1.214
101.3 kPa, x1 = 0.8011 | 1.638 | 1.505 | 1.389 | 1.28
101.3 kPa, x1 = 0.8937 | 1.74 | 1.595 | 1.469 | 1.351
101.33 kPa, x2 = 0.1017 | – | 1.524 | – | 1.307
101.33 kPa, x2 = 0.2145 | – | 1.416 | – | 1.22
101.33 kPa, x2 = 0.3053 | – | 1.331 | – | –
101.33 kPa, x2 = 0.3083 | – | – | – | 1.157
101.33 kPa, x2 = 0.404 | – | 1.246 | – | 1.091
101.33 kPa, x2 = 0.5021 | – | 1.165 | – | 1.023
101.33 kPa, x2 = 0.6003 | – | 1.085 | – | 0.952
101.33 kPa, x2 = 0.6968 | – | 1.002 | – | 0.884
101.33 kPa, x2 = 0.7975 | – | 0.917 | – | 0.809
101.33 kPa, x2 = 0.8975 | – | 0.826 | – | 0.738

O=[N+]([O-])c1ccccc1 + COc1ccccc1
Details | viscosity [mPa·s]
293.15 K, 101.33 kPa, x2 = 0.0982 | 1.864
293.15 K, 101.33 kPa, x2 = 0.1946 | 1.72
293.15 K, 101.33 kPa, x2 = 0.2868 | 1.597
293.15 K, 101.33 kPa, x2 = 0.3929 | 1.478
293.15 K, 101.33 kPa, x2 = 0.5767 | 1.407
293.15 K, 101.33 kPa, x2 = 0.6086 | 1.289
293.15 K, 101.33 kPa, x2 = 0.7073 | 1.23
293.15 K, 101.33 kPa, x2 = 0.8086 | 1.167
293.15 K, 101.33 kPa, x2 = 0.9081 | 1.117
298.15 K, 101 kPa, x2 = 0.1 | 1.556
298.15 K, 101 kPa, x2 = 0.2022 | 1.561
298.15 K, 101 kPa, x2 = 0.3039 | 1.454
298.15 K, 101 kPa, x2 = 0.3968 | 1.368
298.15 K, 101 kPa, x2 = 0.5018 | 1.281
298.15 K, 101 kPa, x2 = 0.6021 | 1.204
298.15 K, 101 kPa, x2 = 0.7032 | 1.146
298.15 K, 101 kPa, x2 = 0.8267 | 1.068
298.15 K, 101 kPa, x2 = 0.9043 | 1.045
298.15 K, 101.33 kPa, x2 = 0.0982 | 1.703
298.15 K, 101.33 kPa, x2 = 0.1946 | 1.613
298.15 K, 101.33 kPa, x2 = 0.2868 | 1.468
298.15 K, 101.33 kPa, x2 = 0.3929 | 1.371
298.15 K, 101.33 kPa, x2 = 0.5767 | 1.294
298.15 K, 101.33 kPa, x2 = 0.6086 | 1.201
298.15 K, 101.33 kPa, x2 = 0.7073 | 1.153
298.15 K, 101.33 kPa, x2 = 0.8086 | 1.074
298.15 K, 101.33 kPa, x2 = 0.9081 | 1.048
303.15 K, 101 kPa, x2 = 0.0972 | 1.555
303.15 K, 101 kPa, x2 = 0.1 | 1.43
303.15 K, 101 kPa, x2 = 0.1829 | 1.437
303.15 K, 101 kPa, x2 = 0.2022 | 1.443
303.15 K, 101 kPa, x2 = 0.2642 | 1.341
303.15 K, 101 kPa, x2 = 0.3039 | 1.339
303.15 K, 101 kPa, x2 = 0.3916 | 1.224
303.15 K, 101 kPa, x2 = 0.3968 | 1.263
303.15 K, 101 kPa, x2 = 0.4829 | 1.147
303.15 K, 101 kPa, x2 = 0.5018 | 1.186
303.15 K, 101 kPa, x2 = 0.583 | 1.08
303.15 K, 101 kPa, x2 = 0.6021 | 1.115
303.15 K, 101 kPa, x2 = 0.6854 | 1.022
303.15 K, 101 kPa, x2 = 0.7032 | 1.064
303.15 K, 101 kPa, x2 = 0.7963 | 0.981
303.15 K, 101 kPa, x2 = 0.8267 | 0.9924
303.15 K, 101 kPa, x2 = 0.8977 | 0.96
303.15 K, 101 kPa, x2 = 0.9043 | 0.9678
308.15 K, 101 kPa, x2 = 0.1 | 1.317
308.15 K, 101 kPa, x2 = 0.2022 | 1.326
308.15 K, 101 kPa, x2 = 0.3039 | 1.236
308.15 K, 101 kPa, x2 = 0.3968 | 1.165
308.15 K, 101 kPa, x2 = 0.5018 | 1.096
308.15 K, 101 kPa, x2 = 0.6021 | 1.031
308.15 K, 101 kPa, x2 = 0.7032 | 0.9838
308.15 K, 101 kPa, x2 = 0.8267 | 0.92
308.15 K, 101 kPa, x2 = 0.9043 | 0.8978
313.15 K, 101 kPa, x2 = 0.1 | 1.217
313.15 K, 101 kPa, x2 = 0.2022 | 1.224
313.15 K, 101 kPa, x2 = 0.3039 | 1.142
313.15 K, 101 kPa, x2 = 0.3968 | 1.078
313.15 K, 101 kPa, x2 = 0.5018 | 1.013
313.15 K, 101 kPa, x2 = 0.6021 | 0.9572
313.15 K, 101 kPa, x2 = 0.7032 | 0.9119
313.15 K, 101 kPa, x2 = 0.8267 | 0.8533
313.15 K, 101 kPa, x2 = 0.9043 | 0.8343
